The source of these data is publication PMC5962878, “The Somatostatin Receptor-4 Agonist J-2156 Alleviates Mechanical Hypersensitivity in a Rat Model of Breast Cancer Induced Bone Pain” (Frontiers in Pharmacology, 2018).

In experiment [1] the target is T1, human somatostatin receptor type 1 (H-SST1) (Homo sapiens, UniProt P30872).
T1 construct: gene SSTR1; stably expressed in CHO-K1, membranes from Perkin Elmer
As to the kind of experiment: radioligand competition, CHO-K1 membranes, […]-Tyr3-somatostatin-14. Conditions: read-out: Mean (±SEM) Ki values (nM) / H-SST1 receptor. It counts as binding.

For experiment [2], the target named is T2, rat SST4 receptor (R-SST4) (Rattus norvegicus, UniProt P30937).
T2 construct: gene Sstr4; H4 cells for cAMP
T2 sequence (P30937 whole entry): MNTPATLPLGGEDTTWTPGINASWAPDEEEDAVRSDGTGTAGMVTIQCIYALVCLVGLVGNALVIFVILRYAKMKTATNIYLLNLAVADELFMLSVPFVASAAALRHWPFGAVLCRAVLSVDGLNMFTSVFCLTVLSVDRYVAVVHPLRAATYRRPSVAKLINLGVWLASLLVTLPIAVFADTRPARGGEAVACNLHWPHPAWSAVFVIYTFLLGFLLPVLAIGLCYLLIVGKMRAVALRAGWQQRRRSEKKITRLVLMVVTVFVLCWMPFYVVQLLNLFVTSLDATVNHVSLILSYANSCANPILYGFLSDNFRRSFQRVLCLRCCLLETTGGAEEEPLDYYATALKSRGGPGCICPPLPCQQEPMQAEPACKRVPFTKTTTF
Described as above. It counts as binding. The note with it: read-out: Mean (±SEM) Ki values (nM) / R-SST4 receptor.

Experiment [3] has as its target T2, rat SST4 receptor (R-SST4). In words: LANCE cAMP, inhibition of forskolin-stimulated cAMP, H4 cells. It counts as cell-based. Conditions: read-out: Mean (±SEM) IC50 values (nM) / R-SST4.
For experiment [4], the target named is T3, human somatostatin receptor type 5 (H-SST5) (Homo sapiens, UniProt P35346).
T3 construct: gene SSTR5; stably expressed in CHO-K1, membranes from Perkin Elmer; printed catalogue number ES-522-M400UA is the same as for type 3 (likely misprint)
T3 sequence (P35346 whole entry): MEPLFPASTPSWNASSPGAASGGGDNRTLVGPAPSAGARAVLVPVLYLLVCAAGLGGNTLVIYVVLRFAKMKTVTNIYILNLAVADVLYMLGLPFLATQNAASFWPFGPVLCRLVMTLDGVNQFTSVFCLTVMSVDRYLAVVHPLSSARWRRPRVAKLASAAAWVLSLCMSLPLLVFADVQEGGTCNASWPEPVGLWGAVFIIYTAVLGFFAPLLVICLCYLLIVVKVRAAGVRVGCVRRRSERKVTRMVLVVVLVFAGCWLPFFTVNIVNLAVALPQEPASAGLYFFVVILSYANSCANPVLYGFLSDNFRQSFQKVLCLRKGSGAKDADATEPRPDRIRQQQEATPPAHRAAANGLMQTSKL
In words: radioligand competition, CHO-K1 membranes, […]-Tyr3-somatostatin-14. In kind it is binding. The note with it: read-out: Mean (±SEM) Ki values (nM) / H-SST5 receptor.

Experiment [5] addresses T4, human SST4 receptor (H-SST4) (Homo sapiens, UniProt P31391).
T4 construct: gene SSTR4; H4 cells (Perkin Elmer) for cAMP
As to the kind of experiment: LANCE cAMP, inhibition of forskolin-stimulated cAMP, H4 cells. It counts as cell-based. Conditions: read-out: Mean (±SEM) IC50 values (nM) / H-SST4.

Experiment [6] deals with T5, human somatostatin receptor type 3 (H-SST3) (Homo sapiens, UniProt P32745).
T5 construct: gene SSTR3; stably expressed in CHO-K1, membranes from Perkin Elmer
T5 sequence (P32745 whole entry): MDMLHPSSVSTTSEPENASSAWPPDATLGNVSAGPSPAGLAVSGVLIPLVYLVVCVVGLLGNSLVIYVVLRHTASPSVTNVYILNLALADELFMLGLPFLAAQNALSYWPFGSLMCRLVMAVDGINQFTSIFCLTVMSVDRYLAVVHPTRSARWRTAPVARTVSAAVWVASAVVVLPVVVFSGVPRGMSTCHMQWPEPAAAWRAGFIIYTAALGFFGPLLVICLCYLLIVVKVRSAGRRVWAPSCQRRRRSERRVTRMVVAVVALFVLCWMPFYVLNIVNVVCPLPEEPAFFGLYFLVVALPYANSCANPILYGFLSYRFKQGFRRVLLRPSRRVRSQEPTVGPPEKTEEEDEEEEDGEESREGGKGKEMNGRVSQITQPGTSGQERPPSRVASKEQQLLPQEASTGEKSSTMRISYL
In words: radioligand competition, CHO-K1 membranes, […]-Tyr3-somatostatin-14. It counts as binding. Conditions: read-out: Mean (±SEM) Ki values (nM) / H-SST3 receptor.

In experiment [7] the target is T6, human somatostatin receptor type 2 (H-SST2) (Homo sapiens, UniProt P30874).
T6 construct: gene SSTR2; stably expressed in CHO-K1, membranes from Perkin Elmer
T6 sequence (P30874 whole entry): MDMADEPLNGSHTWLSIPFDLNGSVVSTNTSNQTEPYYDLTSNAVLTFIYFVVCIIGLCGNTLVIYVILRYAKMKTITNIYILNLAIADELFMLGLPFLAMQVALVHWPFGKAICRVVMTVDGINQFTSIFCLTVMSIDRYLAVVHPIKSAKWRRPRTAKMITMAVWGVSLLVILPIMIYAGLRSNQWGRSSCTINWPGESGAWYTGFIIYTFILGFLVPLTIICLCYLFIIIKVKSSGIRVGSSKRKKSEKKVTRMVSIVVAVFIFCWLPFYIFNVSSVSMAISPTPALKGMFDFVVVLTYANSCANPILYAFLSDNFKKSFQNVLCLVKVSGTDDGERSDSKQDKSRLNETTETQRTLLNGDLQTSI
The experiment is described as above. It counts as binding. Conditions: read-out: Mean (±SEM) Ki values (nM) / H-SST2 receptor.

Experiment [8] deals with T4, human SST4 receptor (H-SST4). Described as above. It counts as binding. The note with it: read-out: Mean (±SEM) Ki values (nM) / H-SST4 receptor.

T4 sequence (P31391 whole entry): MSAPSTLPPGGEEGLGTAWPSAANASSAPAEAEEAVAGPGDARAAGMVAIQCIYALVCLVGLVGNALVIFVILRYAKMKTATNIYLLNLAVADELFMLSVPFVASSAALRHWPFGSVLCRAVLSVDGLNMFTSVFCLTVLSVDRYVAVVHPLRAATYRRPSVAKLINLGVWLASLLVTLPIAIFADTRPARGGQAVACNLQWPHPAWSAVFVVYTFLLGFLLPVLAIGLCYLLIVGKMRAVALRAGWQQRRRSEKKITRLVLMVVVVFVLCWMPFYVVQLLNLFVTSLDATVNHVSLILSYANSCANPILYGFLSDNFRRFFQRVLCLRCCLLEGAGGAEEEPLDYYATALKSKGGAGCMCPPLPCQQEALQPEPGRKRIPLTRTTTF
T1 sequence (P30872 whole entry): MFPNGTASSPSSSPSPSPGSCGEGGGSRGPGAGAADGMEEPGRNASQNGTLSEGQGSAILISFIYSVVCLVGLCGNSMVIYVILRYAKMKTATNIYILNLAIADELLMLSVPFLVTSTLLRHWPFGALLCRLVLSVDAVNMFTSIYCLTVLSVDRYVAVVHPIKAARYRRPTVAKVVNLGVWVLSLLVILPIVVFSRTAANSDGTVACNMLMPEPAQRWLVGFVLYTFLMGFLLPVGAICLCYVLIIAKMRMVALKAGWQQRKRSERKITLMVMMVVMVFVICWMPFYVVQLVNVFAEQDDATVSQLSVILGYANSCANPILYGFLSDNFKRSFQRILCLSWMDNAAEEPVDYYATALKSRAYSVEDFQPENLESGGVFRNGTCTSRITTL

With `Cc1ccc(S(=O)(=O)N[C@@H](CCN)C(=O)N[C@@H](Cc2ccccc2)C(N)=O)c2ccccc12` [J-2156, (1′S,2S)-4amino-N-(1′-carbamoyl-2′-phenylethyl)-2-(4″-methyl-1″-naphthalenesulfonylamino)butanamide], the Ki worked out at 589 ± 266 nM in experiment [1]; 0.89 ± 0.64 nM in experiment [2]; 468 ± 156 nM in experiment [4]; 234 ± 112 nM in experiment [6]; 25100 nM in experiment [7]; 0.56 ± 0.1 nM in experiment [8]. Also, the IC50 in experiment [3] worked out at 0.07 ± 0.005 nM; in experiment [5], 0.05 ± 0.01 nM.
